{"source": "patent US12539292B2", "about": "“BRM targeting compounds and associated methods of use” (Arvinas Operations, Inc., priority 2018, dated 2026)", "biological_target": "T1, BRM (Homo sapiens, UniProt P51531)", "T1 construct": "In-Cell Western Screen of BRM Degradation in SW1573 Cells; endogenous in cells; host or cells: SW1573", "T1 sequence (P51531 whole entry)": "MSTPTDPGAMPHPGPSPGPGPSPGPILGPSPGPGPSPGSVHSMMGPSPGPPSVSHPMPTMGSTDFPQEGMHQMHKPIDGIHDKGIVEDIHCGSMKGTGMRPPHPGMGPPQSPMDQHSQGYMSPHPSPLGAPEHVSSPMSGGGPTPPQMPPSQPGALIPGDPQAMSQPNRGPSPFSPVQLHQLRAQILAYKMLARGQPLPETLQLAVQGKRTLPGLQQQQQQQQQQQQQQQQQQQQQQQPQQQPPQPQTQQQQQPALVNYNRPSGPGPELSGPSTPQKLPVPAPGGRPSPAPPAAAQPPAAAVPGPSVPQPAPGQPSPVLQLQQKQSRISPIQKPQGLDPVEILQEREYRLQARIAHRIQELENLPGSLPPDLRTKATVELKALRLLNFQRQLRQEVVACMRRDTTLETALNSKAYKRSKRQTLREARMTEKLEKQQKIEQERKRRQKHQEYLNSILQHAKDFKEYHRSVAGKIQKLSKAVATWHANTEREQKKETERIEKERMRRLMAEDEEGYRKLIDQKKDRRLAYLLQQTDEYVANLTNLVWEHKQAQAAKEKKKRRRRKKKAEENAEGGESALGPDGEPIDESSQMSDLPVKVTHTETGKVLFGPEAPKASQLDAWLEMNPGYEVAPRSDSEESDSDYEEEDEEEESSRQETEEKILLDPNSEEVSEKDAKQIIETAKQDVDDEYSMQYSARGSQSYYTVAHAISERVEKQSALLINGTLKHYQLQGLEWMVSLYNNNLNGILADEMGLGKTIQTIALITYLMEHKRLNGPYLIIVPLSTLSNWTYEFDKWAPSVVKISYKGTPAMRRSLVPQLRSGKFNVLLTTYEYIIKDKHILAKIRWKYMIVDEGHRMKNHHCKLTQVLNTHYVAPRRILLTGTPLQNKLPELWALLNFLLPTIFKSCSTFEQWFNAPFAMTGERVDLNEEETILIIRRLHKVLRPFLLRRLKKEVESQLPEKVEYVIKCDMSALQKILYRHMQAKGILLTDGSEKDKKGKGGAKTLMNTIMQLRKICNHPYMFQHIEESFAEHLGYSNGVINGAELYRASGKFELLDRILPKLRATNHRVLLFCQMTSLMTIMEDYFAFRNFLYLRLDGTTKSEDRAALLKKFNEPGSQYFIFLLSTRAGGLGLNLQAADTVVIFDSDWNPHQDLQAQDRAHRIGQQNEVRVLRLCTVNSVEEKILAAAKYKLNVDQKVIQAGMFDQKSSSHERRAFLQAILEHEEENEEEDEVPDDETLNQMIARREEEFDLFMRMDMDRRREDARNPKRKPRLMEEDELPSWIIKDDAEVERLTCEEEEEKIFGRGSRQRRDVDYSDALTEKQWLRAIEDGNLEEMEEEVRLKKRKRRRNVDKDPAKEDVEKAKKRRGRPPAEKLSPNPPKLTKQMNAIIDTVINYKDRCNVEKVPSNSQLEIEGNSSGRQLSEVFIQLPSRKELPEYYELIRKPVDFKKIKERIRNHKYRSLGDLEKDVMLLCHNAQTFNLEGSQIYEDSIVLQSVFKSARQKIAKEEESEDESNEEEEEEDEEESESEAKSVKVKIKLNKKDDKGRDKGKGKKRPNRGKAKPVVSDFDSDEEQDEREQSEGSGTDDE", "assay": "In-cell Western screen of BRM degradation in SW1573 cells (Dmax and DC50)", "format": "cell-based", "summary_of_the_method": "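After adhering overnight, cells received compound for 18-20 hours. They were then washed in cold DPBS, fixed with 4% PFA for 20 min and permeabilized for 30 min. Blocking and fluorescent secondary staining followed before imaging.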", "key": {"[1]": {"conditions": "BRM degradation, SW1573 cells, read-out: DC50"}, "[2]": {"conditions": "BRM degradation, SW1573 cells, when tested at the top concentration of between 0.3 and 10 μM, read-out: Dmax (%) (% degraded)"}, "[3]": {"conditions": "BRM degradation, SW1573 cells, tested at the top concentration of between 0.3 and 10 μM, read-out: Dmax (%) (% degraded)"}, "[4]": {"conditions": "BRM degradation, read-out: BRM DC50"}, "[5]": {"conditions": "SW1573, % degraded, when tested at the top concentration of between 0.3 and 10 μM, read-out: BRM Dmax (%)"}}, "note": "Read-outs that look alike come from different tables or passages of the source.", "data": [{"smiles": "Cc1ncsc1-c1ccc([C@H](C)NC(=O)[C@@H]2C[C@@H](O)CN2C(=O)[C@@H](c2cc(CCCN3CCN(CCOc4cc(N5C6CCC5CN(c5cc(-c7ccccc7O)nnc5N)C6)ccn4)CC3)no2)C(C)C)cc1", "note": "[compound 134, (2S,4R)-1-((2R)-2-(3-(3-(4-(2-((4-(3-(3-amino-6-(2-hydroxyphenyl)pyridazin-4-yl)-3,8-diazabicyclo[3.2.1]octan-8-yl)pyridin-2-yl)oxy)ethyl)piperazin-1-yl)propyl)isoxazol-5-yl)-3-methylbutanoyl)-4-hydroxy-N-((S)-1-(4-(4-methylthiazol-5-yl)phenyl)ethyl)pyrrolidine-2-carboxamide]", "values": [{"measurement": "DC50", "setting": "[1]", "result": "< 2.5", "unit": "nM"}, {"measurement": "Dmax", "setting": "[2]", "result": "> 75", "unit": "%"}]}, {"smiles": "Cc1ncsc1-c1ccc(C(CCCP(=O)(O)O)NC(=O)[C@@H]2C[C@@H](O)CN2C(=O)[C@H](c2cc(OCCN3CCC(O[C@H]4C[C@H](Oc5cc(N6C7CCC6CN(c6cc(-c8ccccc8O)nnc6N)C7)ccn5)C4)CC3)no2)C(C)C)cc1", "note": "(stereo partly drawn) [compound 701, (4-((2S,4R)-1-((2S)-2-(3-(2-(4-((1r,3S)-3-((4-(3-(3-amino-6-(2-hydroxyphenyl)pyridazin-4-yl)-3,8-diazabicyclo[3.2.1]octan-8-yl)pyridin-2-yl)oxy)cyclobutoxy)piperidin-1-yl)ethoxy)isoxazol-5-yl)-3-methylbutanoyl)-4-hydroxypyrrolidine-2-carboxamido)-4-(4-(4-methylthiazol-5-yl)phenyl)butyl)phosphonic acid]", "values": [{"measurement": "DC50", "setting": "BRM degradation, SW1573 cells", "result": "> 30", "unit": "nM"}]}, {"smiles": "Cc1ncsc1-c1ccc([C@H](C)NC(=O)[C@@H]2C[C@@H](O)CN2C(=O)[C@H](c2cc(OCCN3CCC(O[C@H]4C[C@H](Oc5cc(N6C7CCC6CN(c6cc(-c8ccccc8)nnc6N)C7)ccn5)C4)CC3)no2)C(C)C)cc1", "note": "[compound 536, (2S,4R)-1-((2S)-2-(3-(2-(4-((1r,3S)-3-((4-(3-(3-amino-6-phenylpyridazin-4-yl)-3,8-diazabicyclo[3.2.1]octan-8-yl)pyridin-2-yl)oxy)cyclobutoxy)piperidin-1-yl)ethoxy)isoxazol-5-yl)-3-methylbutanoyl)-4-hydroxy-N-((S)-1-(4-(4-methylthiazol-5-yl)phenyl)ethyl)pyrrolidine-2-carboxamide]", "values": [{"measurement": "DC50", "setting": "BRM degradation, SW1573 cells, Table 2D", "result": "> 30", "unit": "nM"}]}, {"smiles": "Cc1ncoc1-c1ccc([C@H](C)NC(=O)[C@@H]2C[C@@H](O)CN2C(=O)[C@@H](c2cc(OCCN3CCC(O[C@H]4C[C@H](Oc5cc(N6C7CCC6CN(c6cc(-c8ccccc8O)nnc6N)C7)ccn5)C4)CC3)no2)C(C)C)cc1", "note": "[compound 213, (2S,4R)-1-((2R)-2-(3-(2-(4-((1r,3R)-3-((4-(3-(3-amino-6-(2-hydroxyphenyl)pyridazin-4-yl)-3,8-diazabicyclo[3.2.1]octan-8-yl)pyridin-2-yl)oxy)cyclobutoxy)piperidin-1-yl)ethoxy)isoxazol-5-yl)-3-methylbutanoyl)-4-hydroxy-N-((S)-1-(4-(4-methyloxazol-5-yl)phenyl)ethyl)pyrrolidine-2-carboxamide]", "values": [{"measurement": "DC50", "setting": "[1]", "result": "< 2.5", "unit": "nM"}, {"measurement": "Dmax", "setting": "[3]", "result": "> 75", "unit": "%"}]}, {"smiles": "Cc1cc([C@@H](C(=O)N2C[C@H](O)C[C@H]2C(=O)N[C@@H](C)c2ccc(-c3scnc3C)cc2)[C@H](C)COCCOc2cc(N3C4CCC3CN(c3cc(-c5ccccc5O)nnc3N)C4)ccn2)on1", "note": "[compound 513, (2S,4R)-1-((2S,3S)-4-(2-((4-(3-(3-amino-6-(2-hydroxyphenyl)pyridazin-4-yl)-3,8-diazabicyclo[3.2.1]octan-8-yl)pyridin-2-yl)oxy)ethoxy)-3-methyl-2-(3-methylisoxazol-5-yl)butanoyl)-4-hydroxy-N-((S)-1-(4-(4-methylthiazol-5-yl)phenyl)ethyl)pyrrolidine-2-carboxamide]", "values": [{"measurement": "DC50", "setting": "[4]", "result": "> 30", "unit": "nM"}]}, {"smiles": "Cc1cc([C@@H](C(=O)N2C[C@H](O)C[C@H]2C(=O)N[C@@H](C)c2ccc(-c3scnc3C)cc2)[C@@H](C)CO[C@H]2C[C@@H](Oc3cc(N4C5CCC4CN(c4cc(-c6ccccc6O)nnc4N)C5)ccn3)C2)on1", "note": "[compound 481, (2S,4R)-1-((2S,3R)-4-((1s,3S)-3-((4-(3-(3-amino-6-(2-hydroxyphenyl)pyridazin-4-yl)-3,8-diazabicyclo[3.2.1]octan-8-yl)pyridin-2-yl)oxy)cyclobutoxy)-3-methyl-2-(3-methylisoxazol-5-yl)butanoyl)-4-hydroxy-N-((S)-1-(4-(4-methylthiazol-5-yl)phenyl)ethyl)pyrrolidine-2-carboxamide]", "values": [{"measurement": "Dmax", "setting": "[5]", "result": "> 75", "unit": "%"}, {"measurement": "DC50", "setting": "target protein degradation, read-out: BRM DC50", "result": "< 2.5", "unit": "nM"}]}, {"smiles": "Cc1ncsc1-c1ccc([C@H](C)NC(=O)[C@@H]2C[C@@H](O)CN2C(=O)[C@@H](c2cc(N3CCC(CN4CCC(O[C@H]5C[C@H](Oc6cc(N7C8CCC7CN(c7cc(-c9ccccc9O)nnc7N)C8)ccn6)C5)CC4)CC3)no2)C(C)C)c(N)c1", "note": "[compound 708, (2S,4R)-N-((S)-1-(2-amino-4-(4-methylthiazol-5-yl)phenyl)ethyl)-1-((2R)-2-(3-(4-((4-((1r,3r)-3-((4-(3-(3-amino-6-(2-hydroxyphenyl)pyridazin-4-yl)-3,8-diazabicyclo[3.2.1]octan-8-yl)pyridin-2-yl)oxy)cyclobutoxy)piperidin-1-yl)methyl)piperidin-1-yl)isoxazol-5-yl)-3-methylbutanoyl)-4-hydroxypyrrolidine-2-carboxamide]", "values": [{"measurement": "DC50", "setting": "[1]", "result": "< 2.5", "unit": "nM"}, {"measurement": "Dmax", "setting": "BRM degradation, SW1573 cells, read-out: Dmax (% degraded)", "result": "> 75", "unit": "%"}]}, {"smiles": "Cc1ncsc1-c1ccc([C@H](C)NC(=O)[C@@H]2C[C@@H](O)CN2C(=O)[C@@H](c2cc(OCCOc3ccc(C(C)n4cc(-c5cc(-c6ccccc6O)nnc5N)cn4)cc3)no2)C(C)C)cc1", "note": "(stereo partly drawn) [compound 81, (2S,4R)-1-((2R)-2-(3-(2-(4-(1-(4-(3-amino-6-(2-hydroxyphenyl)pyridazin-4-yl)-1H-pyrazol-1-yl)ethyl)phenoxy)ethoxy)isoxazol-5-yl)-3-methylbutanoyl)-4-hydroxy-N-((S)-1-(4-(4-methylthiazol-5-yl)phenyl)ethyl)pyrrolidine-2-carboxamide]", "values": [{"measurement": "DC50", "setting": "[1]", "result": "< 2.5", "unit": "nM"}, {"measurement": "Dmax", "setting": "[2]", "result": "> 75", "unit": "%"}]}, {"smiles": "Cc1ncsc1-c1ccc([C@H](C)NC(=O)[C@@H]2C[C@@H](O)CN2C(=O)[C@@H](c2cc(N3CCC(CN4CCC(CCOc5cc(N6C7CCC6CN(c6cc(-c8ccccc8O)nnc6N)C7)ccn5)CC4)CC3)no2)C(C)C)cc1", "note": "[compound 604, (2S,4R)-1-((2R)-2-(3-(4-((4-(2-((4-(3-(3-amino-6-(2-hydroxyphenyl)pyridazin-4-yl)-3,8-diazabicyclo[3.2.1]octan-8-yl)pyridin-2-yl)oxy)ethyl)piperidin-1-yl)methyl)piperidin-1-yl)isoxazol-5-yl)-3-methylbutanoyl)-4-hydroxy-N-((S)-1-(4-(4-methylthiazol-5-yl)phenyl)ethyl)pyrrolidine-2-carboxamide]", "values": [{"measurement": "Dmax", "setting": "BRM degradation, SW1573 cells, Table 2D, read-out: **Dmax (%) (% degraded)", "result": "> 75", "unit": "%"}, {"measurement": "DC50", "setting": "BRM degradation, SW1573 cells, Table 2D, read-out: *DC50", "result": "< 2.5", "unit": "nM"}]}, {"smiles": "Cc1ncsc1-c1ccc([C@H](C)NC(=O)[C@@H]2C[C@@H](O)CN2C(=O)[C@@H](c2cc(N3CCC(CN4CCC(O[C@H]5C[C@H](C#C[C@H](C)n6cc(-c7cc(-c8ccccc8O)nnc7N)cn6)C5)CC4)CC3)no2)C(C)C)cc1", "note": "[compound 497, (2S,4R)-1-((R)-2-(3-(4-((4-((1S,3r)-3-((S)-3-(4-(3-amino-6-(2-hydroxyphenyl)pyridazin-4-yl)-1H-pyrazol-1-yl)but-1-yn-1-yl)cyclobutoxy)piperidin-1-yl)methyl)piperidin-1-yl)isoxazol-5-yl)-3-methylbutanoyl)-4-hydroxy-N-((S)-1-(4-(4-methylthiazol-5-yl)phenyl)ethyl)pyrrolidine-2-carboxamide]", "values": [{"measurement": "DC50", "setting": "[4]", "result": "< 2.5", "unit": "nM"}, {"measurement": "Dmax", "setting": "[5]", "result": "> 75", "unit": "%"}]}, {"smiles": "Cc1ncsc1-c1ccc([C@H](C)NC(=O)[C@@H]2C[C@@H](O)CN2C(=O)[C@@H](NC(=O)CN2CCC(CN3CCC(OC4CC(Oc5cc(N6C7CC[C@@H]6CN(c6cc(-c8ccccc8O)nnc6N)C7)ccn5)C4)CC3)CC2)C(C)(C)C)cc1", "note": "(stereo partly drawn) [compound 512, (2S,4R)-1-((2S)-2-(2-(4-((4-((1r,3r)-3-((4-(3-(3-amino-6-(2-hydroxyphenyl)pyridazin-4-yl)-3,8-diazabicyclo[3.2.1]octan-8-yl)pyridin-2-yl)oxy)cyclobutoxy)piperidin-1-yl)methyl)piperidin-1-yl)acetamido)-3,3-dimethylbutanoyl)-4-hydroxy-N-((S)-1-(4-(4-methylthiazol-5-yl)phenyl)ethyl)pyrrolidine-2-carboxamide]", "values": [{"measurement": "BRM Dmax (%)", "setting": "% degraded, when tested at the top concentration of between 0.3 and 10 μM", "result": "A (A > 75)"}, {"measurement": "DC50", "setting": "[4]", "result": "< 2.5", "unit": "nM"}]}, {"smiles": "Cc1cnsc1-c1ccc([C@H](C)NC(=O)[C@@H]2C[C@@H](O)CN2C(=O)[C@H](c2cc(OCCN3CCN(CCOc4cc(N5C6CCC5CN(c5cc(-c7ccccc7O)nnc5N)C6)ccn4)CC3)no2)C(C)C)cc1", "note": "[compound 265, (2S,4R)-1-((2S)-2-(3-(2-(4-(2-((4-(3-(3-amino-6-(2-hydroxyphenyl)pyridazin-4-yl)-3,8-diazabicyclo[3.2.1]octan-8-yl)pyridin-2-yl)oxy)ethyl)piperazin-1-yl)ethoxy)isoxazol-5-yl)-3-methylbutanoyl)-4-hydroxy-N-((S)-1-(4-(4-methylisothiazol-5-yl)phenyl)ethyl)pyrrolidine-2-carboxamide]", "values": [{"measurement": "DC50", "setting": "[1]", "result": "> 30", "unit": "nM"}]}, {"smiles": "Cc1ncsc1-c1ccc([C@H](C)NC(=O)[C@@H]2C[C@@H](O)CN2C(=O)[C@@H](c2cc(OC/C=C/c3ccc(O[C@H]4C[C@H](Oc5cc(N6C7CCC6CN(c6cc(-c8ccccc8O)nnc6N)C7)ccn5)C4)cn3)no2)C(C)C)cn1", "note": "[compound 207, (2S,4R)-1-((2R)-2-(3-(((E)-3-(5-((1r,3R)-3-((4-(3-(3-amino-6-(2-hydroxyphenyl)pyridazin-4-yl)-3,8-diazabicyclo[3.2.1]octan-8-yl)pyridin-2-yl)oxy)cyclobutoxy)pyridin-2-yl)allyl)oxy)isoxazol-5-yl)-3-methylbutanoyl)-4-hydroxy-N-((S)-1-(6-(4-methylthiazol-5-yl)pyridin-3-yl)ethyl)pyrrolidine-2-carboxamide]", "values": [{"measurement": "DC50", "setting": "[1]", "result": "< 2.5", "unit": "nM"}, {"measurement": "Dmax", "setting": "[3]", "result": "> 75", "unit": "%"}]}]}
